Where a name gives a salt, the structure may show the parent alone.
How the values were obtained:
[1] = tested on: Differentiated L6-myotubes; assay: Glucose uptake in differentiated L6-myotubes (3H-2-deoxy-glucose); format: cell-based; details: agonist final concentration 1×10^−5; L6-myotubes; 3H-2-deoxy-glucose uptake; relative to isoproterenol; read-out: Biological example 1: glucose uptake, activity compared to that of isoproterenol
[2] = tested on: Intracellular cAMP levels in differentiated cells (L6-myotubes); assay: Measurement of intracellular cAMP levels (alpha screen cAMP kit); format: cell-based; details: 0.25 h; agonist final concentration 1×10-^5, 15 min; differentiated cells; relative to isoproterenol; read-out: Biological example 2: intracellular cAMP levels, activity compared to that of isoproterenol
Method: L6-myoblasts were grown in Dulbecco's Modified Eagle's Medium (DMEM) containing 4.5 g/l glucose supplemented with 10% fetal bovine serum, 2 mM L-Glutamine, 50 U/ml penicillin, 50 μg/ml streptomycin and 10 mM HEPES. Cells were plated at 1×10^5 cells per ml in 24-well plates. After reaching 90% confluence the cells were grown in medium containing 2% FBS for 7 days where upon cells differentiated into myotubes. Differentiated cells were serum-starved over night and stimulated with agonist, final concentration 1×10-^5, for 15 min in stimulation buffer (HBSS supplemented with 1% BSA, 5 mM HEPES and 1 mM IBMX, pH 7.4) The medium was then aspirated and to end the reaction 100 μL of 95% EtOH was added to each well of a 24-well plate and cells were kept in −20° C. over night. The EtOH was let to evaporate and 500 μL of lysis buffer (1% BSA, 5 mM HEPES and 0.3% Tween-20, pH 7.4) was added to each well before put in −80° C. for 30 min and then kept in −20° C. Intracellular cAMP levels were detected using an alpha screen cAMP kit (6760635D from Perkin Elmer). The activity for each compound is compared to that of isoproterenol.

SMILES | Emax [1] [%] | Emax [2] [%]
CCC[C@@H]1CCC[C@@H]([C@H](O)c2cccc(F)c2)N1 [Example 29, (R)-(3-Fluorophenyl)((2S,6R)-6-propylpiperidin-2-yl)methanol hydrochloride] | 25 to 50 | < 25
CCC[C@@H]1CCC[C@@H]([C@H](O)c2cccc(Cl)c2)N1 [Example 30, (R)-(3-Chlorophenyl)((2S,6R)-6-propylpiperidin-2-yl)methanol hydrochloride] | > 75 | < 25
CCC[C@@H]1CCC[C@@H]([C@H](O)c2cccc(O)c2)N1 [Example 32, 3-((R)-hydroxy((2S,6R)-6-propylpiperidin-2-yl)methyl)phenol Hydrochloride] | > 75 | < 25
CCC[C@H]1CCC[C@@H]([C@H](O)c2cccc(F)c2)N1 [Example 34, (R)-(3-Fluorophenyl)((2S,6S)-6-propylpiperidin-2-yl)methanol hydrochloride] | 50 to 75 | < 25
CCC[C@H]1CCC[C@@H]([C@@H](O)c2cccc(F)c2)N1 [Example 35, (S)-(3-Fluorophenyl)((2S,6S)-6-propylpiperidin-2-yl)methanol hydrochloride] | 25 to 50 | < 25
CCC[C@H]1CCC[C@@H]([C@H](O)c2cccc(Cl)c2)N1 [Example 36, (R)-(3-Chlorophenyl)((2S,6S)-6-propylpiperidin-2-yl)methanol hydrochloride] | 25 to 50 | < 25
CCC[C@H]1CCC[C@@H]([C@H](O)c2cccc(O)c2)N1 [Example 37, (R)-(3-Hydroxyphenyl)((2S, 6S)-6-propylpiperidin-2-yl)methanol] | 50 to 75 | < 25
CCC[C@@H]1CC[C@H]([C@@H](O)c2cccc(F)c2)N1 [Example 39, (S)-(3-Fluorophenyl)((2R,5R)-5-propylpyrrolidin-2-yl)methanol Hydrochloride] | 50 to 75 | < 25
CCC[C@@H]1CC[C@H]([C@@H](O)c2cccc(O)c2)N1 [Example 40, 3-((S)-Hydroxy((2R,5R)-5-propylpyrrolidin-2-yl)methyl)phenol] | 25 to 50 | < 25
CCC[C@H]1CC[C@@H]([C@H](O)c2cccc(F)c2)N1 [Example 41, (R)-(3-fluorophenyl)((2S,5S)-5-propylpyrrolidin-2-yl)methanol Hydrochloride] | 50 to 75 | < 25
CCC[C@H]1CC[C@@H]([C@@H](O)c2cccc(F)c2)N1 [Example 42, (S)-(3-Fluorophenyl)((2S,5S)-5-propylpyrrolidin-2-yl)methanol Hydrochloride] | 50 to 75 | < 25
CCC[C@@H]1CC[C@@H]([C@H](O)c2cccc(F)c2)N1 [Example 43, (R)-(3-Fluorophenyl)((2S,5R)-5-propylpyrrolidin-2-yl)methanol Hydrochloride] | 25 to 50 | < 25
CCC[C@@H]1CC[C@@H]([C@@H](O)c2cccc(F)c2)N1 [Example 44, (S)-(3-Fluorophenyl)((2S,5R)-5-propylpyrrolidin-2-yl)methanol Hydrochloride] | 50 to 75 | < 25
CCC[C@H]1CC[C@H]([C@H](O)c2cccc(F)c2)N1 [Example 45, (R)-(3-Fluorophenyl)((2R,5S)-5-propylpyrrolidin-2-yl)methanol] | 50 to 75 | < 25
CCC[C@@H]1CC[C@H]([C@H](O)c2cccc(Cl)c2)N1 [Example 47, (R)-(3-Chlorophenyl)((2R,5R)-5-propylpyrrolidin-2-yl)methanol Maleate] | 50 to 75 | < 25

— patent US11427539B2, “Beta-hydroxy heterocyclic amines and their use in the treatment of hyperglycaemia” (ATROGI AB, priority 2017, dated 2022)
